Paper PMC11684029, “Discovery of VU6024578/BI02982816: An mGlu1 Positive Allosteric Modulator with Efficacy in Preclinical Antipsychotic and Cognition Models” (Journal of Medicinal Chemistry, 2024)

Experiments:
Y1 = target: T1, Y1 (Homo sapiens, UniProt P25929); experiment: Eurofins radioligand binding panel; details: agonist radioligand
T1 construct: Eurofins
Description: (§1) Table S1. Eurofins Lead Profiling Screen Data
(§2) This is a radioligand binding panel of 80 targets including GPCRs, ion channels, transporters and nuclear hormones. Biochemical assay results are presented as the percent inhibition of specific […]
(§3) Results showing an inhibition or stimulation higher than 50% are considered to represent significant effect and are highlighted

H1 = target: T2, H1 (Homo sapiens, UniProt P35367); experiment: Eurofins radioligand binding panel; details: antagonist radioligand
T2 construct: Eurofins (panel run as a service)
Description: as §1, §2, §3

5-HT3 = target: T3, 5-HT3 (Homo sapiens, UniProt P46098); experiment: Eurofins radioligand binding panel; details: antagonist radioligand
T3 construct: Eurofins
Description: as §1, §2, §3

M1 = target: T4, M1 (Homo sapiens, UniProt P11229); experiment: Eurofins radioligand binding panel; details: antagonist radioligand
T4 construct: Eurofins
Description: as §1, §2, §3

delta (DOP) = target: T5, delta (DOP) (Homo sapiens, UniProt P41143); experiment: Eurofins radioligand binding panel; details: agonist radioligand
T5 construct: Eurofins
Description: as §1, §2, §3

5-HT5a = target: T6, 5-HT5a (Homo sapiens, UniProt P47898); experiment: Eurofins radioligand binding panel; details: agonist radioligand
T6 construct: Eurofins
Description: as §1, §2, §3

kappa (KOP) = target: T7, kappa (KOP) (Homo sapiens, UniProt P41145); experiment: Eurofins radioligand binding panel; details: agonist radioligand
T7 construct: Eurofins
Description: as §1, §2, §3

D3 = target: T8, D3 (Homo sapiens, UniProt P35462); experiment: Eurofins radioligand binding panel; details: antagonist radioligand
T8 construct: Eurofins (panel run as a service)
Description: as §1, §2, §3

P2X = experiment: Eurofins radioligand binding panel; details: agonist radioligand
Description: as §1, §2, §3

GR = target: T9, GR (Homo sapiens, UniProt P04150); experiment: Eurofins radioligand binding panel; details: agonist radioligand
T9 construct: Eurofins
Description: as §1, §2, §3

NTS1 (NT1) = target: T10, NTS1 (NT1) (Homo sapiens, UniProt P30989); experiment: Eurofins radioligand binding panel; details: agonist radioligand
T10 construct: Eurofins
Description: as §1, §2, §3

CXCR2 (IL-8B) = target: T11, CXCR2 (IL-8B) (Homo sapiens, UniProt P25025); experiment: Eurofins radioligand binding panel; details: agonist radioligand
T11 construct: Eurofins (panel run as a service)
Description: as §1, §2, §3

[1] = target: T12, norepinephrine transporter (Homo sapiens, UniProt P23975); experiment: Eurofins radioligand binding panel; details: antagonist radioligand
T12 construct: Eurofins
Description: as §1, §2, §3

mu (MOP) = target: T13, mu (MOP) (Homo sapiens, UniProt P35372); experiment: Eurofins radioligand binding panel; details: agonist radioligand
T13 construct: Eurofins
Description: as §1, §2, §3

ETA = target: T14, ETA (Homo sapiens, UniProt P25101); experiment: Eurofins radioligand binding panel; details: agonist radioligand
T14 construct: Eurofins (panel run as a service)
Description: as §1, §2, §3

M4 = target: T15, M4 (Homo sapiens, UniProt P08173); experiment: Eurofins radioligand binding panel; details: antagonist radioligand
T15 construct: Eurofins
Description: as §1, §2, §3

Y2 = target: T16, Y2 (Homo sapiens, UniProt P49146); experiment: Eurofins radioligand binding panel; details: agonist radioligand
T16 construct: Eurofins
Description: as §1, §2, §3

MC4 = target: T17, MC4 (Homo sapiens, UniProt P32245); experiment: Eurofins radioligand binding panel; details: agonist radioligand
T17 construct: Eurofins
Description: as §1, §2, §3

PAC1 (PACAP) = target: T18, PAC1 (PACAP) (Homo sapiens, UniProt P41586); experiment: Eurofins radioligand binding panel; details: agonist radioligand
T18 construct: Eurofins
Description: as §1, §2, §3

GAL2 = target: T19, GAL2 (Homo sapiens, UniProt O43603); experiment: Eurofins radioligand binding panel; details: agonist radioligand
T19 construct: Eurofins (panel run as a service)
Description: as §1, §2, §3

PPARgamma = target: T20, PPARgamma (Homo sapiens, UniProt P37231); experiment: Eurofins radioligand binding panel; details: agonist radioligand
T20 construct: Eurofins
Description: as §1, §2, §3

D5 = target: T21, D5 (Homo sapiens, UniProt P21918); experiment: Eurofins radioligand binding panel; details: antagonist radioligand
T21 construct: Eurofins (panel run as a service)
Description: as §1, §2, §3

M5 = target: T22, M5 (Homo sapiens, UniProt P08912); experiment: Eurofins radioligand binding panel; details: antagonist radioligand
T22 construct: Eurofins
Description: as §1, §2, §3

NK2 = target: T23, NK2 (Homo sapiens, UniProt P21452); experiment: Eurofins radioligand binding panel; details: agonist radioligand
T23 construct: Eurofins
Description: as §1, §2, §3

5-HT2A = target: T24, 5-HT2A (Homo sapiens, UniProt P28223); experiment: Eurofins radioligand binding panel; details: antagonist radioligand
T24 construct: Eurofins
Description: as §1, §2, §3

5-HT7 = target: T25, 5-HT7 (Homo sapiens, UniProt P34969); experiment: Eurofins radioligand binding panel; details: agonist radioligand
T25 construct: Eurofins
Description: as §1, §2, §3

Na+ channel (site 2) = experiment: Eurofins radioligand binding panel; details: antagonist radioligand
Description: as §1, §2, §3

ETB = target: T26, ETB (Homo sapiens, UniProt P24530); experiment: Eurofins radioligand binding panel; details: agonist radioligand
T26 construct: Eurofins (panel run as a service)
Description: as §1, §2, §3

M2 = target: T27, M2 (Homo sapiens, UniProt P08172); experiment: Eurofins radioligand binding panel; details: antagonist radioligand
T27 construct: Eurofins
Description: as §1, §2, §3

dopamine transporter = target: T28, dopamine transporter (Homo sapiens, UniProt Q01959); experiment: Eurofins radioligand binding panel; details: antagonist radioligand
T28 construct: Eurofins
Description: as §1, §2, §3

5-HT transporter = target: T29, 5-HT transporter (Homo sapiens, UniProt P31645); experiment: Eurofins radioligand binding panel; details: antagonist radioligand
T29 construct: Eurofins
Description: as §1, §2, §3

EP2 = target: T30, EP2 (Homo sapiens, UniProt P43116); experiment: Eurofins radioligand binding panel; details: agonist radioligand
T30 construct: Eurofins
Description: as §1, §2, §3

D1 = target: T31, D1 (Homo sapiens, UniProt P21728); experiment: Eurofins radioligand binding panel; details: antagonist radioligand
T31 construct: Eurofins (panel run as a service)
Description: as §1, §2, §3

EP4 = target: T32, EP4 (Homo sapiens, UniProt P35408); experiment: Eurofins radioligand binding panel; details: agonist radioligand
T32 construct: Eurofins
Description: as §1, §2
(§4) Results showing an inhibition or stimulation higher than 50% are considered to represent significant effect and are highlighted […]
(§5) Target / Protein Species % Inhibition at 10
(§6) Adenosine A1 (antagonist radioligand) human 8
(§7) Adenosine A2A (agonist radioligand) human -1
(§8) Adenosine A3 (agonist radioligand) human 23
(§9) Adrenergic alpha 1 (non-selective) (antagonist radioligand) rat 19
(§10) Adrenergic alpha 2 (non-selective) (antagonist radioligand) rat 1
(§11) Adrenergic beta 1 (agonist radioligand) human 1
(§12) Adrenergic beta 2 (antagonist radioligand) human -1
(§13) AT1 (antagonist radioligand) human -1
(§14) AT2 (agonist radioligand) human 2 […]
(§15) BB (non-selective) (agonist radioligand) rat -20
(§16) B2 (agonist radioligand) human 7
(§17) CGRP (agonist radioligand) human 1
(§18) CB1 (agonist radioligand) human 0
(§19) CCK1 (CCKA) (agonist radioligand) human 7
(§20) CCK2 (CCKB) (agonist radioligand) human -4

5-HT1A = target: T33, 5-HT1A (Homo sapiens, UniProt P08908); experiment: Eurofins radioligand binding panel; details: agonist radioligand
T33 construct: Eurofins
Description: as §1, §2, §4, §5, §6, §7, §8, §9, §10, §11, §12, §13, §14, §15, §16, §17, §18, §19, §20

human P-gp = target: T34, human P-gp (Homo sapiens, UniProt P08183); experiment: MDCK-MDR1 permeability/efflux; format: in vitro ADME
T34 construct: expressed in transfected cells; host or cells: MDCK-MDR1

P-gp (MDR1) = target: T35, P-gp (MDR1) (Homo sapiens, UniProt P08183); experiment: MDCK-MDR1 permeability/efflux; format: in vitro ADME; details: human
T35 construct: expressed in transfected cells; host or cells: MDCK-MDR1

rat PO PBL study = format: in vivo; details: 3 mg/kg PO
Description: Thus, 19d was a stable chemical entity in vivo. […] Overall, the rat PK and CNS penetration was supportive of in vivo work and progression down the development flow-chart.

T33 sequence (P08908 whole entry): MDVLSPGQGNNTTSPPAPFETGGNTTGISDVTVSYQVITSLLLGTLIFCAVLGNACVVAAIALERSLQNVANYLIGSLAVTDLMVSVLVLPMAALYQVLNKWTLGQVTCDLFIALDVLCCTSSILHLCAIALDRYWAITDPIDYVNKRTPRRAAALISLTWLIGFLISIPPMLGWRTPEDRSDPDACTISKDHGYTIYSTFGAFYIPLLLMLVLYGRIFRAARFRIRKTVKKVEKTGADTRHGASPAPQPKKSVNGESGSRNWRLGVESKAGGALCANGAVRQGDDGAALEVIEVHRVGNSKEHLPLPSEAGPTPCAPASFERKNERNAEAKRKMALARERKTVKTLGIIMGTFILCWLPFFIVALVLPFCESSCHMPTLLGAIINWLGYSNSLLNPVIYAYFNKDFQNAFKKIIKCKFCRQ
T21 sequence (P21918 whole entry): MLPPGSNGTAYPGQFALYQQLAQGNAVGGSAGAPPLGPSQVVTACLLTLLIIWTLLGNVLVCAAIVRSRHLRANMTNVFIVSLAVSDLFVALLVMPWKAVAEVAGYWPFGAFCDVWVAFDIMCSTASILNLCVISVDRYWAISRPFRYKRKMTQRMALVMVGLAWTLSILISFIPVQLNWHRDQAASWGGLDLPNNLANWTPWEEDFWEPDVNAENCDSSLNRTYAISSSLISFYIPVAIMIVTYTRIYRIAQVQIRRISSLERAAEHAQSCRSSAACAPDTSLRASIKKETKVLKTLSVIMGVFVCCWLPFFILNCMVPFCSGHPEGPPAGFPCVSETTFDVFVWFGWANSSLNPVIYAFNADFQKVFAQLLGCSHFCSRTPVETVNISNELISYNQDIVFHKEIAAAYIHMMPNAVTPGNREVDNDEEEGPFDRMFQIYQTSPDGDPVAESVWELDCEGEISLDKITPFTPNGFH
T3 sequence (P46098 24-478): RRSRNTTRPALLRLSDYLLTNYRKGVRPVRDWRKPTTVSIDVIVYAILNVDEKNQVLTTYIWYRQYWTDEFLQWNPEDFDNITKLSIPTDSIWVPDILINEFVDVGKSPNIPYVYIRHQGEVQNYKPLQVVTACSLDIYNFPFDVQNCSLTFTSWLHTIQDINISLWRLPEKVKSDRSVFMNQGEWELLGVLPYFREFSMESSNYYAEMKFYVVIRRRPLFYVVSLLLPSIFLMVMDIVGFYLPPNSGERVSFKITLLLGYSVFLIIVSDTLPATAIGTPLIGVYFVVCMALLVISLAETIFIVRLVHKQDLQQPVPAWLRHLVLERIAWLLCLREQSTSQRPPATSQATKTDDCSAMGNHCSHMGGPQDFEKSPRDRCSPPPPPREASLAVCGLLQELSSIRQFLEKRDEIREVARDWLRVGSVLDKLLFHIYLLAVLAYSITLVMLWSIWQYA
T27 sequence (P08172 whole entry): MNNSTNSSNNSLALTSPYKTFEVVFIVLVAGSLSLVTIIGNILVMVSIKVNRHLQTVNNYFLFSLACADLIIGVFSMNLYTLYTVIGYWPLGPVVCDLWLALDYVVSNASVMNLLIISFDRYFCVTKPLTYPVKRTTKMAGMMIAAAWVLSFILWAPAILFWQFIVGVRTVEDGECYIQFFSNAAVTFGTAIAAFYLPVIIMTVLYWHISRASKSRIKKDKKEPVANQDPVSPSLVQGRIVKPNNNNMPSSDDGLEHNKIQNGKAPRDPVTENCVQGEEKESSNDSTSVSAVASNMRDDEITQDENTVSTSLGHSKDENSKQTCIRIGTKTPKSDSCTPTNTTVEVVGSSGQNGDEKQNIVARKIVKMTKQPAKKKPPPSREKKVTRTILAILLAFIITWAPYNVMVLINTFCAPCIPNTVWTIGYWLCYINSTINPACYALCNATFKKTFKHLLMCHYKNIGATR
T13 sequence (P35372 whole entry): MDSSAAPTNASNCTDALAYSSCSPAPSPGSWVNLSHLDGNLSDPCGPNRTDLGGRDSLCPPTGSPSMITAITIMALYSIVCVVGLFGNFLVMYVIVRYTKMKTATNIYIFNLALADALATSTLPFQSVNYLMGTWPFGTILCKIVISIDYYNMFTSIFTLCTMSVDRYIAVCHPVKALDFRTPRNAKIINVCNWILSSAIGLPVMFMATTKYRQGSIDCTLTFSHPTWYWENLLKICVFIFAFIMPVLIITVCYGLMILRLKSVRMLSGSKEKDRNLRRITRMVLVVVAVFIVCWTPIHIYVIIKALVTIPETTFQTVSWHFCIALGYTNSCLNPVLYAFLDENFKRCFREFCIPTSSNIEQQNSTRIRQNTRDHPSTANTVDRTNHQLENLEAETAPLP
T1 sequence (P25929 whole entry): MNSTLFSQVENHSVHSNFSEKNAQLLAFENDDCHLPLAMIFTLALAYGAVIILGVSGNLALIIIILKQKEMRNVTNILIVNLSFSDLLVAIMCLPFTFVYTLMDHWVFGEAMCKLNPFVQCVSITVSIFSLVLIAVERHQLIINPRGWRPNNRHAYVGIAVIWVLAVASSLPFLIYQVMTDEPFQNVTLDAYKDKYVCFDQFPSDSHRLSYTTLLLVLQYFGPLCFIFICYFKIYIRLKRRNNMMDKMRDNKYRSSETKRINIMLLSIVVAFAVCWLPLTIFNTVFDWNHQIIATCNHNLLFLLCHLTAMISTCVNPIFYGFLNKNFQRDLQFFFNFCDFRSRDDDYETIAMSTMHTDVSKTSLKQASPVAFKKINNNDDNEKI
T18 sequence (P41586 21-468): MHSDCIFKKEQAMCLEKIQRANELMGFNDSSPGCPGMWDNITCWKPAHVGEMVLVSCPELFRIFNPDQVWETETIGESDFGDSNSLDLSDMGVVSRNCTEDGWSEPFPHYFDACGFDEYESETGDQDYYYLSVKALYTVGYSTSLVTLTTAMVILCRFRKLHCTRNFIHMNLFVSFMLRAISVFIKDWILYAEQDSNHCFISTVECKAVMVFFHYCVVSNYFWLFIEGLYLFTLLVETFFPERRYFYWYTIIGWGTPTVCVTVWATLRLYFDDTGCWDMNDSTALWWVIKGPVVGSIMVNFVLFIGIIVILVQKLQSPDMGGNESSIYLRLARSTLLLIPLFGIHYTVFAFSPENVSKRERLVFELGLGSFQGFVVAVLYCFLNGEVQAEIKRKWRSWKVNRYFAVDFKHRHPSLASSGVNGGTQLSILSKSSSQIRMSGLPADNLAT
T14 sequence (P25101 21-427): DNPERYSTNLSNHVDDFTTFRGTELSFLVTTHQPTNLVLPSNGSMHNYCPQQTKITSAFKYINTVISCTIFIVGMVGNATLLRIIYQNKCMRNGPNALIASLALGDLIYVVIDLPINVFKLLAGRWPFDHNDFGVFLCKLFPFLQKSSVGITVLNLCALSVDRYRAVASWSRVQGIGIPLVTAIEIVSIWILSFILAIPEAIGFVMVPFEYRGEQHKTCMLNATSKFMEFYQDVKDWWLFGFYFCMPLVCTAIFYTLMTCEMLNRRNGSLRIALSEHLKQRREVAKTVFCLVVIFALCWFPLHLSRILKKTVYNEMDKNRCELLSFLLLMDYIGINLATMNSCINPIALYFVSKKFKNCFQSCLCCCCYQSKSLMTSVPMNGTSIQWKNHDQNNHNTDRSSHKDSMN
T23 sequence (P21452 whole entry): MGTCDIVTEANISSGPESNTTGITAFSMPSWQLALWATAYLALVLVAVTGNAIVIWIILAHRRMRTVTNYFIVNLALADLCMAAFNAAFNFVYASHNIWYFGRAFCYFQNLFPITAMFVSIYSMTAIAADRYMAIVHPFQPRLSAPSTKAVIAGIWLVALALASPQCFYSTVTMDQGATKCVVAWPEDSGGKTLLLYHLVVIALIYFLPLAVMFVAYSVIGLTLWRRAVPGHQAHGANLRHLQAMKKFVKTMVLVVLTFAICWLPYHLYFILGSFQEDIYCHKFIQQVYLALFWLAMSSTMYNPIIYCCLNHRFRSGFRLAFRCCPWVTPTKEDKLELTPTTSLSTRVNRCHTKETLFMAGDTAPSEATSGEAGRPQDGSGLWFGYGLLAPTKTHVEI
T22 sequence (P08912 whole entry): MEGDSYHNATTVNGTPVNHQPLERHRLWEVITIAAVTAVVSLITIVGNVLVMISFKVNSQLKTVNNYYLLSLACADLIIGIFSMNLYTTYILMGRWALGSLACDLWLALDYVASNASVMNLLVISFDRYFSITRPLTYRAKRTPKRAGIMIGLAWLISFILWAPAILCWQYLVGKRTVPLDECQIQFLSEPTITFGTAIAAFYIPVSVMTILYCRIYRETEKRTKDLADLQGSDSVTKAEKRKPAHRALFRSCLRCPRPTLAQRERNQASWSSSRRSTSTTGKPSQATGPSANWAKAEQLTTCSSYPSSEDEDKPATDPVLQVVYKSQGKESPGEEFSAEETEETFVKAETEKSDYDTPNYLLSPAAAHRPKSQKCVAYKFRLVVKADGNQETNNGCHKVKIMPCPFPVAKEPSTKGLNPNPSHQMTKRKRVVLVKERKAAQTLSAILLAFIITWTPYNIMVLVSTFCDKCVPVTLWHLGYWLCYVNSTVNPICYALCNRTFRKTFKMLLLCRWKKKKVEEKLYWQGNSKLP
T5 sequence (P41143 whole entry): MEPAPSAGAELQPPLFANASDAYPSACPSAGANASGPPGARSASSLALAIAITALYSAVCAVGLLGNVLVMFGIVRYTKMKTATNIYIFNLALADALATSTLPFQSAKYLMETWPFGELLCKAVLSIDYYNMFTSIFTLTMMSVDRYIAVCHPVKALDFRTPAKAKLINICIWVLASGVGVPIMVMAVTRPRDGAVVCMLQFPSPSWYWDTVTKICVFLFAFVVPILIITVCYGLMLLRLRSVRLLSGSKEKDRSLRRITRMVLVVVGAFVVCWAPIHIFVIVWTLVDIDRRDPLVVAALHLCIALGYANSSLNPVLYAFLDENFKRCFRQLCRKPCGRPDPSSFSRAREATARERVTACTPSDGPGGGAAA

`Cn1nc(-c2ccnn2C)cc1CNC(=O)c1cc(-c2ccco2)ccc1Cl` [Compound 19d, 2-Chloro-N-((1,2′-dimethyl-1H,2’H-[3,3′-bipyrazol]-5-yl)methyl)-5-(furan-2-yl)benzamide] showed an inhibition at 10 µM (Y1) of -7%, an inhibition at 10 µM (H1) of 6% and an inhibition at 10 µM (5-HT3) of 2%. It also gave an inhibition at 10 µM (M1) of 14%, an inhibition at 10 µM (delta (DOP)) of 8% and an inhibition at 10 µM (5-HT5a) of -2%. The inhibition at 10 µM (kappa (KOP)) was 11%, the inhibition at 10 µM (D3) was -6% and the “% Inhibition at 10 µM” value (P2X) was -6%. It also gave an inhibition at 10 µM (GR) of 0%, an inhibition at 10 µM (NTS1 (NT1)) of -1% and an inhibition at 10 µM (CXCR2 (IL-8B)) of 3%. It also gave an inhibition at 10 µM [1] of 11%, an inhibition at 10 µM (mu (MOP)) of 14% and an inhibition at 10 µM (ETA) of -6%. It also gave an inhibition at 10 µM (M4) of 11%, an inhibition at 10 µM (Y2) of -18% and an inhibition at 10 µM (MC4) of 14%. It also gave an inhibition at 10 µM (PAC1 (PACAP)) of -2%, an inhibition at 10 µM (GAL2) of -9% and an inhibition at 10 µM (PPARgamma) of 2%. For the same compound, the inhibition at 10 µM (D5) was -1%, the inhibition at 10 µM (M5) was 3% and the inhibition at 10 µM (NK2) was 11%. The inhibition at 10 µM (5-HT2A) was -1%, the inhibition at 10 µM (5-HT7) was -4% and the “% Inhibition at 10 µM” value (Na+ channel (site 2)) was 14%. The inhibition at 10 µM (ETB) was -27%, the inhibition at 10 µM (M2) was 18% and the inhibition at 10 µM (dopamine transporter) was 37%. The inhibition at 10 µM (5-HT transporter) was 47%, the inhibition at 10 µM (EP2) was 41% and the inhibition at 10 µM (D1) was 3%. The inhibition at 10 µM (EP4) was 62%, the inhibition at 10 µM (5-HT1A) was 51% and the “human P-gp substrate, in words” value (human P-gp) was “not a human P-gp substrate”. The Papp (P-gp (MDR1)) was 73 ×10⁻⁶ cm/s, the “unbound brain concentration Br[unbound]” value (rat PO PBL study; at Tmax) was 100 nM and the Kp (rat PO PBL study; brain, 15 min to 7 h) was about 0.5.
